For experiment [1], the target named is recombinant human kinase domain of JAK3 (Homo sapiens (Human), UniProt P52333). Description: JAK Caliper enzyme assay at 1 mM ATP (JAK3).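 Note: microfluidic mobility-shift readout of synthetic peptide phosphorylation, percent product converted from peak heights, normalized to DMSO-only wells as uninhibited baseline, room temperature incubation.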 Format: biochemical. The conditions noted are these: 1 mM ATP; read-out: IC50 (nM) JAK3.
Experiment [2] relates to interferon alpha signalling (TYK2 and JAK1), STAT3 phosphorylation. Description: Human whole blood INFα induced STAT3 phosphorylation assay.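 Note: flow cytometry with anti-pSTAT3 staining, signal as percent-positive × mean fluorescence, baseline from unstimulated wells, 11-point dilution series, IC50 as inhibition of pSTAT3.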 It counts as cell-based. The conditions noted are these: compound 60 minutes at 37° C., IFNα 5000 U/ml for 15 minutes, pSTAT3 in lymphocyte population by flow cytometry, read-out: HWB IFN alpha IC50.
In experiment [3] the target is recombinant human kinase domain of TYK2 (Homo sapiens (Human), UniProt P29597). The experiment can be described thus: JAK Caliper enzyme assay at 1 mM ATP (TYK2).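 Note: microfluidic mobility-shift readout of synthetic peptide phosphorylation by TYK2, tuned to 20–30% conversion at room temperature, reaction stopped with EDTA, DMSO-only wells as uninhibited baseline.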 Format: biochemical.
Chain of recombinant human kinase domain of TYK2 (P29597 897-1176): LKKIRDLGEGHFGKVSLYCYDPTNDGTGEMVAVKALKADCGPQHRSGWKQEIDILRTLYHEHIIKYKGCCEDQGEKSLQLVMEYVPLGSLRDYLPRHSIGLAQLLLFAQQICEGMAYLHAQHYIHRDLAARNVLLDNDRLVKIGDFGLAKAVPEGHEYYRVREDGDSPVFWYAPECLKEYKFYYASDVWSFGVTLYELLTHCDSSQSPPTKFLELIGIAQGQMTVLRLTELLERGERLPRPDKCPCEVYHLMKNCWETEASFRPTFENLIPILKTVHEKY
The target of experiment [4] is recombinant human kinase domain of JAK2 (Homo sapiens (Human), UniProt O60674). The experiment can be described thus: JAK Caliper enzyme assay at 1 mM ATP (JAK2).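 Note: microfluidic mobility-shift read-out of fluorescent synthetic peptide phosphorylation, percent product converted from peak heights, room temperature, DMSO-only wells as uninhibited baseline, inhibition curve fit.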 Format: biochemical.
Chain of recombinant human kinase domain of JAK2 (O60674 849-1124): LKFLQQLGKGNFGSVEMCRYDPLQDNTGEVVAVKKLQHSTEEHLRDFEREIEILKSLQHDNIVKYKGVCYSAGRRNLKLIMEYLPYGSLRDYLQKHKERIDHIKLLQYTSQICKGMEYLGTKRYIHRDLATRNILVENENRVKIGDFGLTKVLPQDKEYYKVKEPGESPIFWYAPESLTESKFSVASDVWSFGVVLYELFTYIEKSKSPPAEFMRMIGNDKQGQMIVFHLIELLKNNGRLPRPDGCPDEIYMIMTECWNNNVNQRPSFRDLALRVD
Experiment [5] addresses recombinant human kinase domain of JAK1 (Homo sapiens (Human), UniProt P23458). The experiment can be described thus: JAK Caliper enzyme assay at 1 mM ATP (JAK1).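 Note: microfluidic mobility-shift readout of synthetic fluorescent peptide phosphorylation, percent product converted from peak height, inhibition relative to DMSO-only wells as uninhibited baseline, room temperature incubation.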 Format: biochemical.
Setting [6] is: 1 mM ATP, read-out: IC50 (nM) TYK2.
Setting [7] is: 1 mM ATP, read-out: IC50 (nM) JAK1.

Where two headings read alike, the source gives them in different places.

Chain of recombinant human kinase domain of JAK1 (P23458 875-1153): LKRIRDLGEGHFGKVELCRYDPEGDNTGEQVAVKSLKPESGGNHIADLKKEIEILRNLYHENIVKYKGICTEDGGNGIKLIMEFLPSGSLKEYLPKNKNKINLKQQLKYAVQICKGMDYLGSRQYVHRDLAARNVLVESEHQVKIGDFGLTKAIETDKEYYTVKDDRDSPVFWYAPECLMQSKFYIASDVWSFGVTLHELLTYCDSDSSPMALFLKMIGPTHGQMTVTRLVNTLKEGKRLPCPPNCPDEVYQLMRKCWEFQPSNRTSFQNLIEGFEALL
Chain of recombinant human kinase domain of JAK3 (P52333 822-1111): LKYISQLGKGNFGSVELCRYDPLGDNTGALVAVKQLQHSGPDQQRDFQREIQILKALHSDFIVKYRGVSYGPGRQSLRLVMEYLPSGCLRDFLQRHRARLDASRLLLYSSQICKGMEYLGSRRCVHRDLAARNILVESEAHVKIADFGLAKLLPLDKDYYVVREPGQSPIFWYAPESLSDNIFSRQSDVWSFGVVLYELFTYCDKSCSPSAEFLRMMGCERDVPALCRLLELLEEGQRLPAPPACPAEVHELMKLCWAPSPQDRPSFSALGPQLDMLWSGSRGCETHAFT

Take `Cn1cc(Nc2nccc(N3C[C@H]4CC[C@@H](C3)N4Cc3nccs3)n2)cn1` [Example 57, N-(1-methyl-1H-pyrazol-4-yl)-4-[(1R,5S)-8-(1,3-thiazol-2-ylmethyl)-3,8-diazabicyclo[3.2.1]oct-3-yl]pyrimidin-2-amine]: the half-inhibitory concentration (IC50) (commonly the concentration that inhibits the measured activity by half) in experiment [1] was more than 10000 nM; in experiment [2] it was 0.338 µM; in experiment [3] (setting [6]), 89 nM; in experiment [4], 1070 nM; in experiment [5] (setting [7]), 294 nM.

As for `Cn1cc(Nc2nccc(N3C[C@H]4CC[C@@H](C3)N4Cc3cnoc3)n2)cn1` [Example 58, N-(1-methyl-1H-pyrazol-4-yl)-4-[(1R,5S)-8-(1,2-oxazol-4-ylmethyl)-3,8-diazabicyclo[3.2.1]oct-3-yl]pyrimidin-2-amine], the IC50 was more than 10000 nM in experiment [1], 0.158 µM in experiment [2], 73 nM in experiment [3] (setting [6]) and 267 nM in experiment [5] (setting [7]).

In the case of `CCNC(=O)N1[C@@H]2CC[C@H]1CN(c1ccnc(Nc3cnc(C(=O)NC)c(C)c3)n1)C2` [Example 91, (1R,5S)—N-ethyl-3-(2-{[5-methyl-6-(methylcarbamoyl)pyridin-3-yl]amino}pyrimidin-4-yl)-3,8-diazabicyclo[3.2.1]octane-8-carboxamide], the concentration for half-maximal inhibition (IC50) was more than 10000 nM in experiment [1]; 0.195 µM in experiment [2]; 39 nM in experiment [3] (setting [6]); 513 nM in experiment [4]; 183 nM in experiment [5] (setting [7]).

`C[C@@H](CO)c1ccc(Nc2nccc(N3C[C@H]4CC[C@@H](C3)N4C(=O)[C@@H]3CC3(F)F)n2)cn1` (single isomer, unassigned) [Example 11]: the IC50 in experiment [1] was more than 10000 nM; in experiment [2], 0.134 µM; in experiment [3] it was 40 nM; in experiment [4], 141 nM; in experiment [5] (setting [7]), 139 nM.

As to `Cn1cc(Nc2nccc(N3C[C@H]4CC[C@@H](C3)N4C3CN(S(C)(=O)=O)C3)n2)cn1` [Example 60, N-(1-methyl-1H-pyrazol-4-yl)-4-{(1R,5S)-8-[1-(methylsulfonyl)azetidin-3-yl]-3,8-diazabicyclo[3.2.1]oct-3-yl}pyrimidin-2-amine], the IC50 is more than 10000 nM in experiment [1]; 0.103 µM in experiment [2]; 70 nM in experiment [3] (setting [6]); 159 nM in experiment [4]; 36 nM in experiment [5] (setting [7]).

In the case of `O=C([C@@H]1CC1(F)F)N1[C@@H]2CC[C@H]1CN(c1ccnc(Nc3cnc(CO)c(F)c3)n1)C2` [Example 25, [(1S)-2,2-difluorocyclopropyl][(1R,5S)-3-(2-{[5-fluoro-6-(hydroxymethyl)pyridin-3-yl]amino}pyrimidin-4-yl)-3,8-diazabicyclo[3.2.1]oct-8-yl]methanone], the half-inhibitory concentration (IC50) in experiment [1] was more than 10000 nM; in experiment [2], 0.229 µM; in experiment [3] (setting [6]), 34 nM; in experiment [4], 468 nM; in experiment [5] (setting [7]), 317 nM.

Consider `CNC(=O)c1ncc(Nc2nccc(N3C[C@H]4CC[C@@H](C3)N4C(=O)[C@@H]3CC3(F)F)n2)cc1Cl` [Example 10, 3-chloro-5-({4-[(1R,5S)-8-{[(1S)-2,2-difluorocyclopropyl]carbonyl}-3,8-diazabicyclo[3.2.1]oct-3-yl]pyrimidin-2-yl}amino)-N-methylpyridine-2-carboxamide], for which the IC50 in experiment [1] is more than 10000 nM; in experiment [2], 0.439 µM; in experiment [3] (setting [6]), 22 nM; in experiment [4], 367 nM; in experiment [5] (setting [7]) it was 171 nM.

For the molecule `O=C([C@@H]1CC1(F)F)N1[C@@H]2CC[C@H]1CN(c1ccnc(Nc3cnc(CCO)c(Cl)c3)n1)C2` [Example 18, [(1R,5S)-3-(2-{[5-chloro-6-(2-hydroxyethyl)pyridin-3-yl]amino}pyrimidin-4-yl)-3,8-diazabicyclo[3.2.1]oct-8-yl][(1S)-2,2-difluorocyclopropyl]methanone], the IC50 in experiment [1] was more than 10000 nM; in experiment [2], 0.338 µM; in experiment [3] (setting [6]), 62 nM; in experiment [4], 331 nM; in experiment [5] (setting [7]), 352 nM.

Consider `CNC(=O)c1ncc(Nc2nccc(N3C[C@H]4CC[C@@H](C3)N4C(=O)C3CC3)n2)cc1C` [Example 6, 5-({4-[(1R,5S)-8-(cyclopropylcarbonyl)-3,8-diazabicyclo[3.2.1]oct-3-yl]pyrimidin-2-yl}amino)-N,3-dimethylpyridine-2-carboxamide], for which the IC50 in experiment [1] is more than 10000 nM; in experiment [2], 0.232 µM; in experiment [3] (setting [6]), 36 nM; in experiment [4], 754 nM; in experiment [5] (setting [7]), 337 nM.

`O=C([C@@H]1CC1(F)F)N1[C@@H]2CC[C@H]1CN(c1ccnc(Nc3cnc(CCO)c(F)c3)n1)C2` [Example 19, [(1S)-2,2-difluorocyclopropyl][(1R,5S)-3-(2-{[5-fluoro-6-(2-hydroxyethyl)pyridin-3-yl]amino}pyrimidin-4-yl)-3,8-diazabicyclo[3.2.1]oct-8-yl]methanone]: the IC50 was more than 10000 nM in experiment [1]; 0.238 µM in experiment [2]; 52 nM in experiment [3] (setting [6]); 402 nM in experiment [4]; 463 nM in experiment [5] (setting [7]).

Turning to `Cn1cc(Nc2ncc(F)c(N3C[C@@]4(CO)C[C@@]4(NC(=O)[C@@H]4CC4(F)F)C3)n2)cn1` [Example 109, (1S)-2,2-difluoro-N-[(1S,5S)-3-{5-fluoro-2-[(1-methyl-1H-pyrazol-4-yl)amino]pyrimidin-4-yl}-5-(hydroxymethyl)-3-azabicyclo[3.1.0]hex-1-yl]cyclopropanecarboxamide], the IC50 in experiment [1] was more than 10000 nM; in experiment [2], 0.507 µM; in experiment [3] (setting [6]) it was 51 nM; in experiment [5] (setting [7]) it was 211 nM.

For `CNC(=O)c1ncc(Nc2nccc(N3C[C@H]4CC[C@@H](C3)N4C(=O)[C@@H]3CC3(F)F)n2)cc1F` [Example 29, 5-({4-[(1R,5S)-8-{[(1S)-2,2-difluorocyclopropyl]carbonyl}-3,8-diazabicyclo[3.2.1]oct-3-yl]pyrimidin-2-yl}amino)-3-fluoro-N-methylpyridine-2-carboxamide], the IC50 in experiment [1] is more than 10000 nM; in experiment [2] it was 0.118 µM; in experiment [3] (setting [6]) it was 31 nM; in experiment [4] it was 487 nM; in experiment [5] it was 131 nM.

For the molecule `O=C([C@@H]1CC1(F)F)N1[C@@H]2CC[C@H]1CN(c1ccnc(Nc3cnc(N4CC[C@H](O)C4)c(F)c3)n1)C2` [Example 20, [(1S)-2,2-difluorocyclopropyl]{(1R,5S)-3-[2-({5-fluoro-6-[(3S)-3-hydroxypyrrolidin-1-yl]pyridin-3-yl}amino)pyrimidin-4-yl]-3,8-diazabicyclo[3.2.1]oct-8-yl}methanone], the IC50 in experiment [1] was more than 10000 nM; in experiment [2] it was 0.458 µM; in experiment [3] (setting [6]) it was 58 nM; in experiment [4] it was 346 nM; in experiment [5] (setting [7]) it was 314 nM.

Turning to `CCNC(=O)c1ncc(Nc2nccc(N3C[C@H]4CC[C@@H](C3)N4C(=O)C3CC3)n2)cc1C` [Example 14, 5-({4-[(1R,5S)-8-(cyclopropylcarbonyl)-3,8-diazabicyclo[3.2.1]oct-3-yl]pyrimidin-2-yl}amino)-N-ethyl-3-methylpyridine-2-carboxamide], the IC50 in experiment [1] was more than 10000 nM; in experiment [2], 0.287 µM; in experiment [3] (setting [6]), 79 nM.

As to `Cc1cc(Nc2nccc(N3C[C@H]4CC[C@@H](C3)N4C(=O)[C@@H]3CC3(F)F)n2)cnc1C(N)=O` [Example 35, 5-({4-[(1R,5S)-8-{[(1S)-2,2-difluorocyclopropyl]carbonyl}-3,8-diazabicyclo[3.2.1]oct-3-yl]pyrimidin-2-yl}amino)-3-methylpyridine-2-carboxamide], the 50% inhibitory concentration (IC50) was more than 10000 nM in experiment [1], 0.09 µM in experiment [2], 337 nM in experiment [4] and 170 nM in experiment [5] (setting [7]).

`CCn1cc(Nc2nccc(N3C[C@H]4CC[C@@H](C3)N4C(=O)[C@@H]3C[C@H]3C#N)n2)cn1` [Example 24, (1R,2R)-2-{[(1R,5S)-3-{2-[(1-ethyl-1H-pyrazol-4-yl)amino]pyrimidin-4-yl}-3,8-diazabicyclo[3.2.1]oct-8-yl]carbonyl}cyclopropanecarbonitrile]: the IC50 in experiment [1] worked out at 4990 nM; in experiment [2], 0.043 µM; in experiment [4] it was 67 nM; in experiment [5] (setting [7]), 13 nM.

With `Cn1cc(Nc2nccc(N3C[C@H]4CC[C@@H](C3)N4Cc3ccns3)n2)cn1` [Example 55, N-(1-methyl-1H-pyrazol-4-yl)-4-[(1R,5S)-8-(1,2-thiazol-5-ylmethyl)-3,8-diazabicyclo[3.2.1]oct-3-yl]pyrimidin-2-amine], the IC50 in experiment [1] came to 8620 nM; in experiment [2], 0.168 µM; in experiment [4], 221 nM; in experiment [5] (setting [7]), 35 nM.

Take `CNC(=O)c1ncc(Nc2nccc(N3C[C@H]4CC[C@@H](C3)N4C(=O)[C@H]3C[C@@H]3F)n2)cc1C` [Example 44, 5-({4-[(1R,5S)-8-{[(1R,2S)-2-fluorocyclopropyl]carbonyl}-3,8-diazabicyclo[3.2.1]oct-3-yl]pyrimidin-2-yl}amino)-N,3-dimethylpyridine-2-carboxamide]: the IC50 was more than 10000 nM in experiment [1], 0.562 µM in experiment [2], 854 nM in experiment [4] and 475 nM in experiment [5] (setting [7]).

On to `O=C([C@@H]1CC1(F)F)N1[C@@H]2CC[C@H]1CN(c1ccnc(Nc3cn[nH]c3)n1)C2` [Example 51, ((1R,5S)-3-(2-((1H-pyrazol-4-yl)amino)pyrimidin-4-yl)-3,8-diazabicyclo[3.2.1]octan-8-yl)((S)-2,2-difluorocyclopropyl)methanone], for which the IC50 in experiment [1] is 8610 nM; in experiment [2], 0.02 µM; in experiment [4], 97 nM; in experiment [5] (setting [7]), 13 nM.

The record behind these values is US9663526B2, “Aminopyrimidinyl compounds” (Pfizer Inc., priority 2014, dated 2017).
